Laboratory results reported in PubChem BioAssay (NCI).
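96-well plates; 48 h exposure; 5 concentrations. Endpoints by linear interpolation between flanking doses. Not reached: highest tested concentration assigned. TGI: total growth inhibition.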

Assays:
Test in all cases: NCI-60 cell line screen, 48 h
[1] = system: 786-0 renal
[2] = system: A498 renal
[3] = system: A549 NSCLC
[4] = system: ACHN renal
[5] = system: CAKI-1 renal
[6] = system: COLO 205 colon
[7] = system: DU-145 prostate
[8] = system: EKVX NSCLC
[9] = system: HCC-2998 colon
[10] = system: HCT-116 colon
[11] = system: HCT-15 colon
[12] = system: HL-60(TB) leukemia
[13] = system: HOP-62 NSCLC
[14] = system: HOP-92 NSCLC
[15] = system: HS 578T breast
[16] = system: HT29 colon
[17] = system: IGROV1 ovarian
[18] = system: K-562 leukemia
[19] = system: KM12 colon
[20] = system: LOX IMVI melanoma
[21] = system: M14 melanoma
[22] = system: MALME-3M melanoma
[23] = system: MCF7 breast
[24] = system: MDA-MB-435
[25] = system: MDA-N
[26] = system: MOLT-4 leukemia
[27] = system: NCI-H23 lung
[28] = system: NCI-H460 lung
[29] = system: NCI-H522 lung
[30] = system: NCI/ADR-RES ovarian
[31] = system: OVCAR-3 ovarian
[32] = system: OVCAR-4 ovarian
[33] = system: OVCAR-5 ovarian
[34] = system: OVCAR-8 ovarian
[35] = system: PC-3 prostate
[36] = system: RPMI-8226 leukemia
[37] = system: RXF 393 renal
[38] = system: SF-268 CNS
[39] = system: SF-295 CNS
[40] = system: SF-539 CNS
[41] = system: SK-MEL-2 melanoma
[42] = system: SK-MEL-28 melanoma
[43] = system: SK-MEL-5 melanoma
[44] = system: SK-OV-3 ovarian
[45] = system: SNB-19 CNS
[46] = system: SNB-75 CNS
[47] = system: SR leukemia
[48] = system: SW-620 colon
[49] = system: T-47D breast
[50] = system: TK-10 renal
[51] = system: U251 CNS
[52] = system: UACC-257 melanoma
[53] = system: UACC-62 melanoma
[54] = system: UO-31 renal

COc1ccc(CNc2nc(NCc3ccc(OC)cc3)nc(NC(C)C)n2)cc1
TGI [1]: 32.9 µM
TGI [2]: 47.1 µM
TGI [3]: 33.7 µM
TGI [4]: 59.1 µM
TGI [5]: 66.4 µM
TGI [6]: 33.9 µM
TGI [7]: 66 µM
TGI [8]: 93.2 µM
TGI [9]: 64.8 µM
TGI [10]: 12.4 µM
TGI [11]: > 100 µM
TGI [12]: 17.7 µM
TGI [13]: 37.5 µM
TGI [14]: 48.7 µM
TGI [15]: > 100 µM
TGI [16]: > 100 µM
TGI [17]: > 100 µM
TGI [18]: > 100 µM
TGI [19]: 76.3 µM
TGI [20]: 30.9 µM
TGI [21]: 16.7 µM
TGI [22]: 22.8 µM
TGI [23]: 5.6 µM
TGI [24]: 11.2 µM
TGI [25]: 10.3 µM
TGI [26]: > 100 µM
TGI [27]: 30.8 µM
TGI [28]: 17 µM
TGI [29]: 10.6 µM
TGI [30]: 18.9 µM
TGI [31]: 10.3 µM
TGI [32]: > 100 µM
TGI [33]: 81.9 µM
TGI [34]: 33.6 µM
TGI [35]: 23.9 µM
TGI [36]: 5.3 µM
TGI [37]: 38.5 µM
TGI [38]: 50 µM
TGI [39]: > 100 µM
TGI [40]: 27.3 µM
TGI [41]: 44.2 µM
TGI [42]: > 100 µM
TGI [43]: 16.5 µM
TGI [44]: > 100 µM
TGI [45]: > 100 µM
TGI [46]: > 100 µM
TGI [47]: > 100 µM
TGI [48]: > 100 µM
TGI [49]: > 100 µM
TGI [50]: 70.4 µM
TGI [51]: > 100 µM
TGI [52]: 39.8 µM
TGI [53]: 31.1 µM
TGI [54]: > 100 µM
